Laboratory results: patent publication US20070275936A1, “Formulations and Treatment Methods” (priority 1998, published 2007)

How the values were obtained:
P. falciparum = assay: Intravenous BrEA malaria patient trial; type: in vivo; settings: day 14, two patients
Description: Response to drug treatment was graded as per World Health Organization criteria (WHO 1973) in infected patients. Evaluation of therapeutic response was determined using the parasitic and fever clearance times. […]
Microscopy. […] Parasitemia was quantified in thin films by counting 2000 red blood cells in clear contiguous fields and finding the proportion that was parasitized. In thick films, parasitemia was quantified by counting parasites against leukocytes. […] Approximately 5000 erythrocytes were counted in clear contiguous fields 24 and 48 h after incubation of blood obtained at each time point and graded for maturity into tiny rings, small rings, large rings, pigmented trophozoites and schizonts. […]
Calculation of Parameters. […] Parasitemia quantification and clinical examination were done once every 6 hours for the first 72 hours, followed by daily assessment of the parameters up to day 7 (168 hrs) and thereafter on day 14.
Blood films were Giemsa-stained and parasitemia quantification was done in thick films by counting 2000 parasites against leukocytes, and the thin films by finding the proportion of infected red blood cells. […]

HIV-1 viral RNA = assay: Human HIV clinical protocol: viral load (bDNA); type: in vivo; settings: after three 5-day courses of intermittent dosing over 153 days
Description: Otherwise untreated patients with CD4 counts of ≧200/μL and HIV-1 viral RNA between 5,000 and 1,000,000 copies/mL (branched-DNA, version 3.0, Bayer, Tarrytown, N.Y.) provided informed consent and were enrolled into a Phase I/II dose-escalation study of the safety and efficacy of intramuscular injections of BrEA. The protocol was conducted in South Africa. In the first cohort, four patients received an initial injection of 1 mL (50 mg), followed by a safety and pharmocokinetic study for seven days, and then received five daily injections of 1 mL (50 mg). The second cohort of 8 patients was randomized in a 1:2 ratio to receive either 50 mg (1 mL) or 100 mg (2 mL) on the same schedule. […]
CD4 counts were assessed using a FACScount (BDIS), and viral loads were measured using the bDNA assay (Bayer). […]
Statistical analysis of changes in surface phenotypes, hematological, and viral parameters were performed by calculating the area under the curve (AUC) of the percentage difference from baselines (phenotype), percentage difference from the mean of screen and baseline values (hematology), or log10 change from the mean of screen and baseline values (plasma viral RNA) for individual patients. AUC were calculated using the actual number of days between analysis visits for each patient. […]

C[C@]12CC[C@H](O)C[C@@H]1CC[C@@H]1[C@@H]2CC[C@]2(C)C(=O)[C@H](Br)C[C@@H]12 [BrEA, 16α-bromo-3β-hydroxy-5α-androstane-17-one]
parasite clearance rate (P. falciparum): 100%
change in viral load (HIV-1 viral RNA): no overall decrease in viral load
